Assay results taken from PubChem BioAssay (NCI).
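96-well plates; 48 h exposure; 5 concentrations. Endpoints by linear interpolation between flanking doses. Not reached: highest tested concentration assigned. GI50 = concentration required for 50% inhibition of growth. TGI: concentration producing complete growth inhibition.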

Columns and labels:
Assay in all cases: NCI tumour cell line growth inhibition, 48 h
[1] = system: LOX IMVI melanoma
[2] = system: OVCAR-5 ovarian
[3] = system: SK-MEL-28 melanoma
[4] = system: NCI-H460 lung
[5] = system: SNB-75 CNS
[6] = system: RXF 393 renal
[7] = system: HT29 colon
[8] = system: COLO 205 colon
[9] = system: MDA-MB-435
[10] = system: NCI-H226 lung

Structure (SMILES) | TGI [1] [µM] | TGI [2] [µM] | TGI [3] [µM] | TGI [4] [µM] | TGI [5] [µM] | TGI [6] [µM] | TGI [7] [µM] | TGI [8] [µM] | TGI [9] [µM] | TGI [10] [µM] | GI50 [8] [µM] | GI50 [1] [µM] | GI50 [2] [µM] | GI50 [9] [µM] | GI50 [3] [µM] | GI50 [10] [µM] | GI50 [4] [µM] | GI50 [5] [µM] | GI50 [7] [µM] | GI50 [6] [µM]
CCCCNC(=S)OCCC(C)CCCC(C)C (stereo unspecified) | > 100 | > 100 | > 100 | > 100 | > 100 | > 100 | > 100 | – | – | – | – | – | – | – | – | – | – | – | – | –
NC(Cc1c[nH]c2ccc([N+](=O)[O-])cc12)C(=O)O (stereo unspecified) | > 100 | > 100 | > 100 | – | > 100 | > 100 | > 100 | > 100 | > 100 | > 100 | – | – | – | – | – | – | – | – | – | –
CC(=O)Nc1cc2cc(NS(=O)(=O)c3ccc(Cl)c(Cl)c3)ccc2oc1=O | 44.3 | > 100 | > 100 | > 100 | – | 25.6 | > 100 | 93.7 | > 100 | > 100 | – | – | – | – | – | – | – | – | – | –
COc1cc(/C=C(\NC(=O)c2ccccc2)c2nc3ncncc3[nH]2)cc(OC)c1OC | – | > 100 | > 100 | – | – | > 100 | > 100 | > 100 | – | – | – | – | – | – | – | – | – | – | – | –
N#C/C(=C1\OC(=N)C(c2ccccc2)C1=O)c1ccccc1 (stereo unspecified) | 91.5 | > 100 | 20.2 | > 100 | > 85.7 | 31.8 | 57.7 | 44.2 | – | > 100 | – | – | – | – | – | – | – | – | – | –
COc1ccc(-c2cn(-c3ccc(OC)c(OC)c3)c(=O)[nH]2)cc1 | > 100 | > 100 | > 100 | > 100 | 98.7 | – | > 100 | > 100 | > 100 | > 100 | > 100 | > 100 | > 100 | 50.2 | > 100 | > 100 | > 100 | 24.6 | 65.1 | –
O=C(CCC(=O)Nc1cccc(C(F)(F)F)c1)CC(=O)c1ccc2ccccc2c1 | > 100 | > 100 | – | > 100 | – | – | > 100 | > 100 | – | > 100 | – | – | – | – | – | – | – | – | – | –
COc1cc(-c2nc3ccccc3o2)cc(CN2CCCCC2)c1O | – | 20.7 | 4.12 | 10.9 | 4.76 | 52 | – | 4.6 | 3.53 | 4.32 | 2.38 | – | 5.31 | 1.7 | 1.97 | 1.85 | 2.84 | 2.3 | – | 17.1
COc1cc([N+](=O)[O-])c(S(=O)(=O)O)cc1-n1nc(C(=O)Nc2ccccc2)n[n+]1-c1cc(S(=O)(=O)[O-])c([N+](=O)[O-])cc1OC | > 100 | > 100 | > 100 | > 100 | > 100 | – | > 100 | > 100 | > 100 | > 100 | – | – | – | – | – | – | – | – | – | –
Nc1nc2c(-c3ccc([N+](=O)[O-])cc3)nnn2c2ccccc12 | > 100 | > 100 | > 100 | > 100 | – | – | > 100 | > 100 | – | > 100 | – | – | – | – | – | – | – | – | – | –
NS(=O)(=O)c1ccc(NC(=O)C2C(=O)C(=O)N(c3ccc(S(N)(=O)=O)cc3)C2=O)cc1 (stereo unspecified) | > 100 | > 100 | > 100 | – | > 100 | > 100 | > 100 | > 100 | – | > 100 | – | – | – | – | – | – | – | – | – | –
CCOC(=O)c1[nH]c2cc(OC)c(OC)cc2c1CN(C)C | > 100 | > 100 | > 100 | > 100 | > 100 | > 100 | > 100 | – | – | > 100 | – | – | – | – | – | – | – | – | – | –
O=C(N=c1nc(NC(=O)c2ccccc2)ss1)c1ccccc1 | > 100 | > 100 | > 100 | 39.7 | > 100 | > 100 | 37.6 | 47.3 | – | > 100 | – | – | – | – | – | – | – | – | – | –
CN(C)Cc1ccc(NC(=O)c2cncc(C#Cc3cnc(N)c4ncccc34)c2)cc1F | – | 3.92 | 3.46 | 3.63 | 5.73 | – | – | – | 3.14 | – | – | – | 2.08 | 1.64 | 1.85 | – | 1.93 | 1.38 | – | –
COc1ccc(O)cc1C(O)c1ccccc1 (stereo unspecified) | > 100 | > 100 | > 100 | > 100 | > 100 | > 100 | > 100 | > 100 | – | > 100 | – | – | – | – | – | – | – | – | – | –
C#CC1(O)C(COP(=O)(O)OCC2OC(n3cc(F)c(=O)[nH]c3=O)CC2O)OC(n2ccc(N)nc2=O)C1O (stereo unspecified) | – | > 59.1 | 0.378 | > 21.5 | – | 1.48 | > 100 | 0.96 | 0.181 | > 100 | < 0.01 | < 0.01 | 0.309 | < 0.01 | < 0.01 | < 0.01 | < 0.01 | – | < 0.01 | < 0.0387
COc1cc2ncnc(Nc3ccc(Oc4ccnc(C)c4)c(C)c3)c2cc1NC(=O)CC1CCSS1 (stereo unspecified) | > 50 | > 50 | – | – | > 25.2 | > 50 | – | – | 2.48 | > 12.9 | – | 2.62 | 1.87 | 0.976 | – | 1.68 | – | 1.41 | – | 1.5
COc1ccc2c(c1)CCc1cc(OC)ccc1/[N+]([O-])=[N+]\2[O-] | 42.7 | 52.7 | 34.1 | 39.9 | 33.3 | 12.2 | 45.2 | 28.8 | 32.2 | – | – | – | – | – | – | – | – | – | – | –
CC1C=CC(C(N)C(=O)O)O1 (stereo unspecified) | > 100 | > 100 | > 100 | > 100 | > 100 | > 100 | > 100 | > 100 | – | > 100 | – | – | – | – | – | – | – | – | – | –
CC(C)COC1Sc2ccccc2S1 | 37.9 | – | 33.7 | 24.6 | 6.36 | 34.6 | 36.6 | 89.2 | – | – | – | – | – | – | – | – | – | – | – | –
CCCCCCCCCCCCCCCC(=O)OCCOCCOCCOCCOCCOC(=O)CCCCCCCCCCCCCCC | > 100 | > 100 | > 100 | > 100 | – | > 100 | > 100 | > 100 | – | > 100 | – | – | – | – | – | – | – | – | – | –
